Biological target: RpfF (Xanthomonas campestris, UniProt Q7CLS3)
Assay: HPLC and LC-MS of product formed by purified His-tagged RpfF
Assay type: biochemical
Details: formed from 3-hydroxydodecanoyl-ACP (dehydratase and thioesterase); Tris-HCl pH 7.5, ATP, Mg2+, Vibrio harveyi AasS; 37 °C, 30 min

Chain of RpfF (Q7CLS3 entry or part of it): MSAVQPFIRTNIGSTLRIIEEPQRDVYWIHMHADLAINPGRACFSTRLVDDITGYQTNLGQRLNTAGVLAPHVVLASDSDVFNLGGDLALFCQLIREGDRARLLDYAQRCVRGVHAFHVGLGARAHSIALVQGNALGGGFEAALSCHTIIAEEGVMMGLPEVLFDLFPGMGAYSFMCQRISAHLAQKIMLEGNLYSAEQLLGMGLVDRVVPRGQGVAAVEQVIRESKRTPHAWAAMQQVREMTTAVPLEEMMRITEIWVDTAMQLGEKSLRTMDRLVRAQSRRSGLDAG

Compound: CCCCCCCCC/C=C\C(=O)O [BDSF, cis-2-dodecenoic acid]
- HPLC and LC-MS of product formed by purified His-tagged RpfF: detected in the reaction mixture containing RpfF and 3-OH-C12:0-ACP

Reference: article PMC4542539, “The Multiple DSF-family QS Signals are Synthesized from Carbohydrate and Branched-chain Amino Acids via the FAS Elongation Cycle” (Scientific Reports, 2015)
